Holding throughout (format): in vivo
Series [1] relates to Beet Armyworm (Spodoptera exigua, LAPHEG). As to the kind of experiment: Bioassays on Beet Armyworm (BAW), 128-well diet tray assay. The conditions noted are these: Spodoptera exigua. The procedure, abridged: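 One to five second-instar larvae per well on artificial diet surface-treated with 50 μg/cm^2 test molecule (applied in 90:10 acetone-water, dried), eight wells per compound. Trays held vented at 25° C., 14:10 light-dark for five to seven days; percent mortality averaged over the eight wells.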

Series [2] concerns Cabbage Looper (Trichoplusia ni, TRIPNI). As to the kind of experiment: Bioassays on Cabbage Looper (CL), 128-well diet tray assay. Conditions: Trichoplusia ni. The method in brief:
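One to five second-instar larvae per well on artificial diet surface-treated with 50 μg/cm^2 test molecule (applied in 90:10 acetone-water, dried). Held 5–7 days at 25° C, 14:10 light-dark; percent mortality recorded per well and averaged over eight wells.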

In series [3] the test system is Yellow Fever Mosquito (Aedes aegypti, AEDSAE). The conditions noted are these: for YFM rating: Table ABC / ABC-DP rating. The method in brief: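 Compounds from DMSO master plates (4000 ppm stock) diluted in 90:10 water/acetone, then dispensed into six replicate plates and infested with ~1-day-old Aedes aegypti larvae in liver-powder water. Held covered at room temperature for 3 days; each well scored for larval mortality and graded on a rating scale.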

[4] abbreviates: Beet Armyworm, rating class, read-out: BAW.
The mark [5] stands for this setting: Cabbage Looper, rating class, read-out: CL.
Setting [6] is: Yellow Fever Mosquito, rating class.
Setting [7] is: Table ABC: Biological Results, species BAW, read-out: BAW.
[8] abbreviates: Table ABC: Biological Results, species CL, read-out: CL.
Where [9] appears, read: Table ABC: Biological Results, species YFM.
[10] abbreviates: Beet Armyworm, Table ABC / ABC-DP rating, read-out: BAW rating.
Where [11] appears, read: Cabbage Looper, Table ABC / ABC-DP rating, read-out: CL rating.

Where two headings read alike, the source gives them in different places.

As to `O=C(Nc1ccc(F)c(NC(=O)C(F)F)c1F)c1cc(NC(=O)[C@H]2[C@H](c3ccc(F)c(Br)c3)C2(Cl)Cl)ccc1Cl` [F1410, 5-((1R,3R)-3-(3-Bromo-4-fluorophenyl)-2,2-dichlorocyclopropane-1-carboxamido)-2-chloro-N-(3-(2,2-difluoroacetamido)-2,4-difluorophenyl)benzamide], the pest or weed control at 50 µg/cm2 in series [1] (setting [4]) and in series [2] (setting [5]) was 50 to 100% each time. Besides, in series [3] (setting [6]), the YFM result is given as “A (80–100)”.

As to `CCC(=O)Nc1c(F)ccc(NC(=O)c2cc(NC(=O)[C@H]3[C@H](c4cc(F)cc(C(F)(F)F)c4)C3(Cl)Cl)ccc2Cl)c1F` [F1709, 2-Chloro-5-((1R,3R)-2,2-dichloro-3-(3-fluoro-5-(trifluoromethyl)phenyl)cyclopropane-1-carboxamido)-N-(2,4-difluoro-3-propionamidophenyl)benzamide], the pest or weed control at 50 µg/cm2 in series [1] (setting [4]) and in series [2] (setting [5]) was 50 to 100% throughout. In series [3] (setting [6]), the YFM result was “A (80–100)”.

For `Nc1c(F)ccc(NC(=O)c2cc(NC(=O)[C@H]3[C@@H](c4cc(Br)cc(S(F)(F)(F)(F)F)c4)C3(Cl)Cl)ccc2Cl)c1F` (relative stereo) [F1043, cis-N-(3-Amino-2,4-difluorophenyl)-5-(3-(3-bromo-5-(pentafluoro-λ^6-sulfanyl)phenyl)-2,2-dichlorocyclopropane-1-carboxamido)-2-chlorobenzamide], the pest or weed control at 50 µg/cm2 in series [1] (setting [7]) and in series [2] (setting [8]) was 50 to 100% each time. Further, the YFM entry in series [3] (setting [9]) is recorded as “A (80–100)”.

On to `C=C(F)c1cc(F)ccc1NC(=O)c1cc(NC(=O)[C@H]2[C@H](c3cc(Cl)cc(Cl)c3)C2(Cl)Cl)ccc1Cl` (relative stereo) [F1319, trans-2-Chloro-5-(2,2-dichloro-3-(3,5-dichlorophenyl)cyclopropane-1-carboxamido)-N-(4-fluoro-2-(1-fluorovinyl)phenyl)benzamide], for which the pest or weed control at 50 µg/cm2 in series [1] (setting [7]) and in series [2] (setting [8]) was 50 to 100% in each case. In addition, in series [3] (setting [9]), the YFM entry was “A (80–100)”.

Regarding `O=C(CC(F)(F)F)Nc1c(F)ccc(NC(=O)c2cc(NC(=O)[C@H]3[C@H](c4ccc(Cl)c(Cl)c4)C3(Cl)Cl)ccc2Cl)c1F` [F1418, 2-Chloro-5-((1R,3R)-2,2-dichloro-3-(3,4-dichlorophenyl)cyclopropane-1-carboxamido)-N-(2,4-difluoro-3-(3,3,3-trifluoropropanamido)phenyl)benzamide], the pest or weed control at 50 µg/cm2 in series [1] (setting [4]) and in series [2] (setting [5]) was 50 to 100% in each case. The YFM entry in series [3] (setting [6]) is “A (80–100)”.

As to `CCCN(C(=O)C(C)OCC)c1c(F)ccc(NC(=O)c2cc(NC(=O)[C@H]3[C@H](c4ccc(F)c(C(F)(F)F)c4)C3(Cl)Cl)ccc2Cl)c1F` (stereo partly drawn) [F1842, 2-Chloro-5-((1R,3R)-2,2-dichloro-3-(4-fluoro-3-(trifluoromethyl)phenyl)cyclopropane-1-carboxamido)-N-(3-(2-ethoxy-N-propylpropanamido)-2,4-difluorophenyl)benzamide], the pest or weed control at 50 µg/cm2 in series [1] (setting [10]) and in series [2] (setting [11]) was 50 to 100% throughout. In addition, the YFM rating result in series [3] (Yellow Fever Mosquito) is on record as “A (80–100)”.

Consider `CCN(C(=O)C(F)F)c1c(F)ccc(NC(=O)c2cc(NC(=O)[C@H]3[C@H](c4ccc(F)c(C(F)(F)F)c4)C3(Cl)Cl)ccc2Cl)c1F` [F1452, 2-Chloro-5-((1R,3R)-2,2-dichloro-3-(4-fluoro-3-(trifluoromethyl)phenyl)cyclopropane-1-carboxamido)-N-(3-(N-ethyl-2,2-difluoroacetamido)-2,4-difluorophenyl)benzamide], for which the pest or weed control at 50 µg/cm2 in series [1] (setting [4]) and in series [2] (setting [5]) was 50 to 100% each time. Moreover, in series [3] (setting [6]), the YFM result is listed as “A (80–100)”.

For `COc1c(F)cc(NC(=O)[C@H]2[C@H](c3ccc(F)c(Cl)c3)C2(Cl)Cl)cc1C(=O)NCCC(F)(F)F` (relative stereo) [F2059, trans-5-(2,2-Dichloro-3-(3-chloro-4-fluorophenyl)cyclopropane-1-carboxamido)-3-fluoro-2-methoxy-N-(3,3,3-trifluoropropyl)benzamide], the pest or weed control at 50 µg/cm2 in series [1] (setting [10]) and in series [2] (setting [11]) was 50 to 100% in each case. For the same compound, the YFM rating result in series [3] (Yellow Fever Mosquito) is reported as “A (80–100)”.

As for `Cc1c(N)ccc(Br)c1NC(=O)c1cc(NC(=O)[C@H]2[C@H](c3ccc(F)c(C(F)(F)F)c3)C2(Cl)Cl)ccc1Cl` [F1684, N-(3-Amino-6-bromo-2-methylphenyl)-2-chloro-5-((1R,3R)-2,2-dichloro-3-(4-fluoro-3-(trifluoromethyl)phenyl)cyclopropane-1-carboxamido)benzamide], the pest or weed control at 50 µg/cm2 in series [1] (setting [4]) and in series [2] (setting [5]) was 50 to 100% in each case. Moreover, in series [3] (setting [6]), the YFM entry is recorded as “B (More than 0 – Less than 80)”.

As a reminder, the mortality is the share of the test organisms that died. For the compound `Cc1cc(NC(=O)OC(C)(C)C)ccc1NC(=O)c1cc(NC(=O)[C@H]2[C@H](c3cc(Cl)cc(Cl)c3)C2(Cl)Cl)ccc1Cl` (relative stereo) [DP10, trans-tert-butyl-(4-(2-chloro-5-(2,2-dichloro-3-(3,5-dichlorophenyl)cyclopropane-1-carboxamido)benzamido)-3-methylphenyl)carbamate], the mortality at 50 µg/cm2 was in the range of 50 to 100% in series [1] (168 h, second instar larvae, 50 μg/cm^2 of test molecule on artificial diet, 25° C., five to seven days, average of eight wells, read-out: BAW % Control (or Mortality) rating) and 50 to 100% in series [2] (168 h, second instar larvae, 50 μg/cm^2 of test molecule on artificial diet, 25° C., five to seven days, average of eight wells, read-out: CL % Control (or Mortality) rating). The pest or weed control at 50 µg/cm2 in series [1] (setting [10]) and in series [2] (setting [11]) was 50 to 100% throughout. Also, the YFM rating entry in series [3] (Yellow Fever Mosquito) was “A (80–100)”. For the same compound, in series [3] (about 1 day-old larvae, 4000 ppm master solution diluted with 90:10 water/acetone, 15 μL per well plus 220 μL larval mixture, 3 days, mortality), the “YFM % Control (or Mortality) rating” value is listed as “A (80–100)”.

Turning to `CCCC(=O)Nc1c(F)ccc(NC(=O)c2cc(NC(=O)[C@H]3[C@H](c4ccc(F)c(C(F)(F)F)c4)C3(Cl)Cl)ccc2Cl)c1F` [F1385, N-(3-Butyramido-2,4-difluorophenyl)-2-chloro-5-((1R,3R)-2,2-dichloro-3-(4-fluoro-3-(trifluoromethyl)phenyl)cyclopropane-1-carboxamido)benzamide], the pest or weed control at 50 µg/cm2 in series [1] (setting [7]) and in series [2] (setting [8]) was 50 to 100% each time. The YFM entry in series [3] (setting [9]) is on record as “A (80–100)”.

On to `CCC(Cl)C(=O)Nc1c(F)ccc(NC(=O)c2cc(NC(=O)[C@H]3[C@H](c4ccc(F)c(C(F)(F)F)c4)C3(Cl)Cl)ccc2Cl)c1F` (stereo partly drawn) [F1668, 2-Chloro-N-(3-(2-chlorobutanamido)-2,4-difluorophenyl)-5-((1R,3R)-2,2-dichloro-3-(4-fluoro-3-(trifluoromethyl)phenyl)cyclopropane-1-carboxamido)benzamide], for which the pest or weed control at 50 µg/cm2 in series [1] (setting [4]) and in series [2] (setting [5]) was 50 to 100% each time. Moreover, the YFM result in series [3] (setting [6]) is listed as “A (80–100)”.

On to `O=C(Nc1ccc(F)c(NC(=O)C(F)F)c1F)c1cc(NC(=O)[C@H]2[C@H](c3ccc(F)c(Cl)c3)C2(Cl)Cl)ccc1Cl` [F1270, 2-Chloro-5-((1R,3R)-2,2-dichloro-3-(3-chloro-4-fluorophenyl)cyclopropane-1-carboxamido)-N-(3-(2,2-difluoroacetamido)-2,4-difluorophenyl)benzamide], for which the pest or weed control at 50 µg/cm2 in series [1] (setting [7]) and in series [2] (setting [8]) was 50 to 100% throughout. In addition, in series [3] (setting [9]), the YFM result was “A (80–100)”.

For `CC(=O)Nc1ccc(F)c(NC(=O)c2cc(NC(=O)[C@H]3[C@H](c4cc(Cl)c(Cl)c(Cl)c4)C3(Cl)Cl)ccc2F)c1F` [F1556, N-(3-Acetamido-2,6-difluorophenyl)-5-((1R,3R)-2,2-dichloro-3-(3,4,5-trichlorophenyl)cyclopropane-1-carboxamido)-2-fluorobenzamide], the pest or weed control at 50 µg/cm2 in series [1] (setting [4]) and in series [2] (setting [5]) was 50 to 100% in each case. Also, the YFM result in series [3] (setting [6]) is “A (80–100)”.

On to `Cc1cc(NC(=O)[C@H]2[C@H](c3ccc(F)c(Cl)c3)C2(Cl)Cl)cc(C(=O)Nc2ccccc2)c1Cl` (relative stereo) [F1183, trans-2-Chloro-5-(2,2-dichloro-3-(3-chloro-4-fluorophenyl)cyclopropane-1-carboxamido)-3-methyl-N-phenylbenzamide], for which the pest or weed control at 50 µg/cm2 in series [1] (setting [7]) and in series [2] (setting [8]) was 50 to 100% in each case. Also, in series [3] (setting [9]), the YFM result is “A (80–100)”.

On to `O=C(NCCCCl)c1c(F)ccc(NC(=O)[C@H]2[C@H](c3ccc(F)c(Cl)c3)C2(Cl)Cl)c1F` (relative stereo) [F2028, trans-N-(3-Chloropropyl)-3-(2,2-dichloro-3-(3-chloro-4-fluorophenyl)cyclopropane-1-carboxamido)-2,6-difluorobenzamide], for which the pest or weed control at 50 µg/cm2 in series [1] (setting [10]) and in series [2] (setting [11]) was 50 to 100% in each case. In addition, the YFM rating entry in series [3] (Yellow Fever Mosquito) is recorded as “A (80–100)”.

(Values after patent publication US20250228239A1, “MOLECULES HAVING PESTICIDAL UTILITY, AND INTERMEDIATES, COMPOSITIONS, AND PROCESSES, RELATED THERETO” (priority 2024, published 2025).)
